Laboratory results reported in US20080311589A1, “METHOD OF HIGH-THROUGHPUT SCREENING OF MOLECULES AND COMPOUNDS FOR THEIR EFFECTS ON BIOLOGICAL AND CHEMICAL PROCESSES” (priority 1999, published 2008).

How the values were obtained:
[1] = target: T1, recombinant Eg5 (Xenopus laevis, UniProt P28025); test: Eg5 driven microtubule gliding in vitro; format: biochemical; settings: for reversibility of inhibition (washout): monastrol 200 μM, then washout
T1 sequence (P28025 1-1067): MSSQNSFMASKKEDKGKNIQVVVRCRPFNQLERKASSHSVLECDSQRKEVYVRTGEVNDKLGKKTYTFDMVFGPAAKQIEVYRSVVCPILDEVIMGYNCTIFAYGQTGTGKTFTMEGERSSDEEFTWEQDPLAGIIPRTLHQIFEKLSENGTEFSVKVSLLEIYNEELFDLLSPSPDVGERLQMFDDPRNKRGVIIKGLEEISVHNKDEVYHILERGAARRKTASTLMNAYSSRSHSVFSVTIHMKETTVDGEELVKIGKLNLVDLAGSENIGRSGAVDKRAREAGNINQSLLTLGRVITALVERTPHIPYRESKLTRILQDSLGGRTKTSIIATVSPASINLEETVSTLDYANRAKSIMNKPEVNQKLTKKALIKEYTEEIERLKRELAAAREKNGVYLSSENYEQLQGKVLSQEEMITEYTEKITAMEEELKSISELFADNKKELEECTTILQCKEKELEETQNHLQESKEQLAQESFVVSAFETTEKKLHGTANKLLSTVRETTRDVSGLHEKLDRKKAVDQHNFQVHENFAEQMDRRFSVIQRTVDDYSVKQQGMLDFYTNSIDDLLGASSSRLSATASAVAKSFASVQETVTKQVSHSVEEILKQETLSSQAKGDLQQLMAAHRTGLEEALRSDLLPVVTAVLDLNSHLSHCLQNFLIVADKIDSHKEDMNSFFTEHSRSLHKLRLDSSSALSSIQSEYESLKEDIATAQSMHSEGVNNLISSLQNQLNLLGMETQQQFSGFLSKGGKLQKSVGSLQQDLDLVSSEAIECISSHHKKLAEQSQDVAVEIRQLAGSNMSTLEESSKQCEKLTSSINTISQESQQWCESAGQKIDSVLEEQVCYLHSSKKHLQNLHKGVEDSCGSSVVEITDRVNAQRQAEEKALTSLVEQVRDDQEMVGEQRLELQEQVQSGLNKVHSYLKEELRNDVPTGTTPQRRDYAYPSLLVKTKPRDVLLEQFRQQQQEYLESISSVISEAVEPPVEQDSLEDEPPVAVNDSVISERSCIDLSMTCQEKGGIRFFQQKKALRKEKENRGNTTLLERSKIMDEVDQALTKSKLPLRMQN
Protocol: FIG. 26. […] Conventional kinesin motility was not inhibited in the same assay. A. Model for spindle bipolarity. Plus-end directed motors, such as Eg5 are thought to be involved in the separation of the centrosomes and the establishment of a symmetric spindle axis. B. Inhibition of the kinesin Eg5 results in monastrol spindles. Microtubules, green; chromosomes, blue. Eg5 is depicted as homotetramer (9). C. […] After imaging Eg5 driven microtubule gliding in the presence of monastrol (200 μM), the same assay chamber was depleted of compound and the microtubule gliding recorded (Washout). […] D. Chemical structures of monastrol and DHP2.
Mitotic kinesins have been implicated in anti-parallel overlap interactions (Walczak et al., Curr. Biol. 8:903, 1998). Inhibition of the tetrameric mitotic kinesin Eg5 with antibodies induced monoasters (Sawin et al., Nature 359:540, 1992; Blangy et al., Cell 83:125, 1995; Sharp et al., J. Cell Biol. 144:125, 1999). We therefore hypothesized that Eg5 might be a target of monastrol. Like other motile kinesins, Eg5 can drive in vitro microtubule gliding (Sawin et al., Nature 359:540, 1992; Kapoor et al., Proc. Natl. Acad. Sci. USA, 1999). We tested whether monastrol inhibits Eg5 motility in vitro. […] Microtubule attachment to the Eg5 coated coverslip was maintained in the presence of monastrol (FIG. 26C). […] To test whether inhibition of the Eg5 driven microtubule gliding is specific to monastrol, we tested the closely related compound DHP2 (FIG. 26D).

[2] = test system: Golgi apparatus or lysosomes; test: distribution of lysosomes and Golgi apparatus; format: cell-based; settings: concentrations that caused strong spindle defects; interphase cells
Text: We investigated the phenotype of mammalian cells (BS-C-I) treated with the compounds of group III. Live images were taken as described previously (Cramer et al., Curr. Op. Cell Biol. 6:82, 1994); for immunofluoresence, the cells were stained with a Golgi-specific antibody (anti-Golgi 58K protein antibodies [Sigma]) or with anti-α-tubulin antibodies (DM1 A [Sigma]); actin was visualized using TRIC-conjugated phalliodin (Sigma); lysosomes were stained with LysoTracker (Molecular Probes; Palmiter et al., EMBO J. 15:1784, 1996). Our examination of the distribution of microtubules, actin, and chromatin in fixed cells by fluorescence microscopy allowed us to divide the small molecules into three classes. Twenty-seven had no observable effect on the microtubule and actin cytoskeleton or on cheomosome distribution. Consistent with the data from the cytoblot assay we observed an increase in the number of normal appearing mitotic cells. These compounds may increase the mitotic index by perturbing the function of proteins that regulate progression through the cell cycle, e.g., anaphase regulators, rather than structural or mechanochemical components of the mitotic spindle. It is also possible that these compounds have a subtle effect on cytoskeletal dynamics or chromosome organization that may not be observable in fixed cells. […]

## monastrol
[1]
  IC50: 14 µM
  IC50 (inhibitory concentration), Eg5 driven microtubule motility: 14 µM
  reversibility of inhibition (washout): reversible in vitro and in vivo
[1]; listed as Monastrol
  reversibility of inhibition (washout): reversible in vitro
[2]
  localization and organization of Golgi apparatus or lysosomes: did not affect localization and organization of the Golgi apparatus or lysosomes in interphase cells
